System: A375 xenografts
Assay: A375 xenografts in athymic nu/nu mice treated with PLX4720 diet and/or BSO in drinking water
Type: in vivo
Procedure: 2-Mercaptoethanol is a reducing agent that leads to reduction of disulphide bonds to produce thiols. […] The effect of eliminating GSH in vivo was tested by treating mice (Athymic nu/nu) bearing A375 xenografts with rodent diet (AIN-76A) containing PLX4720 ([…], 416 mg/kg of diet) alone and in combination with BSO (15 mM in drinking water). […] Tumor xenografts in mice treated with the AIN-76 diet mixed with PLX4720 were responsive initially, but approximately 80% of these tumors acquired resistance to BRAFi treatment alone within 140 days (i.e., 20% complete responses; FIG. 2). On the contrary, the combination of BSO with PLX4720 produced nearly 90% complete and durable tumor responses (FIG. 4). […] Tumor progression was defined as a 50% increase (approximately a two standard deviation increase) in tumor volume from study initiation.
Female athymic nu/nu mice (age six weeks) were purchased from Envigo (previously Harlan Laboratories) and housed in the Animal Care Facility at The University of Iowa (Iowa City, Iowa). All procedures were approved by The University of Iowa Institutional Animal Care and Use Committee. All mice were naïve to treatments at the time of xenograft. For each xenograft, 1-3×10^6 cells (451LuBR and A375) were implanted subcutaneously in a 1:1 suspension of Matrigel (Corning) and PBS (flank) using a 27-gauge needle. For all in vivo studies, the mice were randomly assigned to experimental groups post-implant. Animals developed tumors within 7-10 days post-implant. Initiation of treatments was standardized to the time that tumor volume ([(longest length)×(smallest length^2)]/2) reached 80-100 mm^3.
The dose and mode of delivery for PBA was determined by analyzing the pharmacokinetics C-14 labeled PBA in mice (FIG. 5). These drugs were administered alone and in combination depending on the experimental group. The mice were monitored for their state of health every day. Tumor volume and animal weights were measured twice per week. Mice were euthanized when the observed state of health reached the endpoint according to the approved IACUC protocol or when the tumor volume reached 1500 mm^3.
Statistics was conducted using the tumor sizes (mm^3) that were obtained periodically throughout the experiments, resulting in repeated measurements for each mouse. Linear mixed effects regression models were used to estimate and compare treatment group-specific tumor growth curves. Pairwise comparisons were performed to identify treatment group differences in the growth curves. The Kaplan-Meier method was used to estimate the survival curves, and group comparisons were made using the log rank test. Mice who developed ulcerations were censored at day of euthanasia. […]

Row | SMILES | complete (and durable) tumor responses (PLX4720 416 mg/kg of diet, alone or with BSO 15 mM in drinking water) [%] | tumors that acquired resistance to BRAFi treatment (within 140 days, PLX4720 416 mg/kg of AIN-76A diet) | tumor growth rate (BSO 15 mM in drinking water, versus untreated controls) | GSH concentrations in tumor samples (mice treated with BSO vs controls)
1 | CCCS(=O)(=O)Nc1ccc(F)c(C(=O)c2c[nH]c3ncc(Cl)cc23)c1F [PLX4720] | 20 | approximately 80% | – | –
2 | CCCCS(=N)(=O)CCC(N)C(=O)O (stereo not shown) [BSO, buthionine sulfoximine] | – | – | No significant difference | significantly lower
